Experimental data reported in PMC6130714, “The α-amylase and α-glucosidase inhibitory activities of the dichloromethane extracts and constituents of Ferulago bracteata roots” (Pharmaceutical Biology, 2017).
In brackets after ≈: the same amount, converted by molar mass. Like-named read-outs stand apart in the source and are kept apart here.

Columns and labels:
α-Glucosidase [1] = assay: α-Glucosidase inhibitory activity (p-NPG substrate, 96-well plate); type: biochemical; details: for α-Glucosidase inhibition (%): mean of three replicates
Experimental: α-Glucosidase inhibitory activity was established by using a 96-well microtiter plate in accordance with the described method (Tao et al. […] Samples were dissolved in dimethyl sulfoxide (DMSO) and all samples (20 µL) together with the enzyme solution (20 µL) were mixed in the plate. Afterwards, the substrate (40 µL) was added for initiation of the reaction and the mixture was incubated at 37 °C for 40 min. After incubation is complete, 0.2 M sodium carbonate (80 µL) in phosphate buffer (pH 6.8) was added to all wells in order to quench the reaction. The amount of released p-nitrophenol (pNP) was measured at 405 nm using a 96-well microplate reader. Each assay for all samples was carried out in triplicate. […] All results are expressed as mean ± SE and differences between means were statistically analyzed using one-way analysis of ANOVA followed by Bonferroni’s complementary analysis, with p < 0.05 considered to indicate statistical significance.

α-amylase = assay: α-Amylase inhibitory activity (starch, dinitrosalicylic acid); type: biochemical; details: concentration 1 mg/mL
Experimental: α-Amylase inhibitory activity was established in accordance with the reported method (Nampoothiri et al. [2011]) with slight modifications. One percent starch solution (100 µL) in 20 mM sodium phosphate buffer (pH 6.9 with 6 mM sodium chloride) and sample solutions (100 µL) were incubated at 25 °C for 10 min in 24-well microplate. After incubation, 100 µL α-amylase solution (0.5 mg/mL) was added to each well and the reaction mixtures were incubated at 25 °C for 10 min. In order to stop the reaction after the incubation, dinitrosalicylic acid color reagent (200 µL) was added and then the microplate was incubated in a boiling water bath for 5 min and cooled at room temperature. 50 µL was taken from each well and then was added to 96-well microplate. The reaction mixture was diluted by adding 200 µL distilled water and absorbance was measured at 540 nm. Each assay for all samples was carried out in triplicate. Percentage inhibitions of all samples were calculated using the equation at following: Inhibition %=1-ΔAsample /ΔAcontrol×100
All results are expressed as mean ± SE and differences between means were statistically analyzed using one-way analysis of ANOVA followed by Bonferroni’s complementary analysis, with p < 0.05 considered to indicate statistical significance.

α-Glucosidase [2] = details: cited from earlier work; for α-glucosidase inhibitory activity (in words): compared to acarbose, ref Luo et al. [2012]

| Compound | α-Glucosidase inhibition (%) (α-Glucosidase [1]; concentration 2000 µg/mL) | α-Glucosidase inhibition (%) (α-Glucosidase [1]; concentration 5000 µg/mL) | IC50 value (α-glucosidase) (α-Glucosidase [1]) | times more effective than acarbose against α-glucosidase (α-Glucosidase [1]; ratio of IC50 values vs acarbose) | α-amylase inhibition (α-amylase) | α-glucosidase inhibitory activity (in words) (α-Glucosidase [2]) | α-Glucosidase inhibition (%) (α-Glucosidase [2]; at 1000 µg/mL, ref Shalaby et al. [2014]) | α-glucosidase IC50 value (α-Glucosidase [2]; at 0.5 mg/mL, ref Ayyasamy & Rajamanickam 2015) |
| --- | --- | --- | --- | --- | --- | --- | --- | --- |
| C[C@H]1O[C@H](O[C@H]2[C@H](O)[C@@H](O)[C@@H](O[C@H]3[C@H](O)[C@@H](O)C(O)O[C@@H]3CO)O[C@@H]2CO)[C@H](O)[C@@H](O)[C@@H]1N[C@H]1C=C(CO)[C@@H](O)[C@H](O)[C@H]1O (some centres unmarked) [Acarbose, acarbose, reference compound] | 29.43 ± 1.71% | 50.81 ± 2.51% | – | – | 82.28% | – | – | – |
| COc1c2ccoc2cc2oc(=O)ccc12 [Bergapten, bergapten] | 39.71 ± 2.44% | 42.26 ± 0.43% | 6120 µg/mL (≈ 28.3 mM) | – | – | too low to compare to that of acarbose | – | – |
| CC(C)=CCOc1c2occc2cc2ccc(=O)oc12 [Imperatorin, imperatorin] | 63.07 ± 0.69% | 88.97 ± 0.88% | 1230 µg/mL (≈ 4.55 mM) | – | – | too low to compare to that of acarbose | 69.66 ± 3.67% | – |
| COc1ccc2ccc(=O)oc2c1CC=C(C)C [Osthole, osthole] | 84.31 ± 1.72% | 93.31 ± 0.29% | 950 µg/mL (≈ 3.89 mM) | – | – | – | – | – |
| O=c1ccc2ccc(O)cc2o1 [Umbelliferone, umbelliferone] | 8.84 ± 0.02% | 10.27 ± 0.49% | 9320 µg/mL (≈ 57.5 mM) | – | – | – | – | 547 µg/mL |
| COc1c2occc2cc2ccc(=O)oc12 [Xanthotoxin, xanthotoxin] | 37.95 ± 8.64% | 45.76 ± 4.82% | 5380 µg/mL (≈ 24.9 mM) | – | – | too low to compare to that of acarbose | – | – |

Now from value to molecule, other results behind:

| α-Glucosidase inhibition (%) (α-Glucosidase [1]; concentration 2000 µg/mL) | α-Glucosidase inhibition (%) (α-Glucosidase [1]; concentration 5000 µg/mL) | IC50 value (α-glucosidase) (α-Glucosidase [1]) | times more effective than acarbose against α-glucosidase (α-Glucosidase [1]; ratio of IC50 values vs acarbose) | Compound | α-amylase inhibition (α-amylase) | α-glucosidase inhibitory activity (in words) (α-Glucosidase [2]) | α-Glucosidase inhibition (%) (α-Glucosidase [2]; at 1000 µg/mL, ref Shalaby et al. [2014]) | α-glucosidase IC50 value (α-Glucosidase [2]; at 0.5 mg/mL, ref Ayyasamy & Rajamanickam 2015) |
| --- | --- | --- | --- | --- | --- | --- | --- | --- |
| 64.93 ± 2.06% | 94.57 ± 0.05% | 420 µg/mL (≈ 1.2 mM) | 11 times | CC(C)(OC(=O)c1ccccc1)[C@@H]1Cc2cc3ccc(=O)oc3cc2O1 [Felamidin, felamidin] | – | – | – | – |
| 7.84 ± 0.71% | 12.30 ± 0.36% | 20010 µg/mL (≈ 57.8 mM) | – | CC(C)=CC(=O)OC(Cc1cc2ccc(=O)oc2cc1O)C(C)(C)O (centres unmarked) [Grandivitinol, grandivitinol] | – | – | – | – |
| 66.86 ± 0.37% | 77.22 ± 0.44% | – | – | CC(C)(O)C(Cc1cc2ccc(=O)oc2cc1O)OC(=O)c1ccccc1 (centres unmarked) [Peucedanol-2'-benzoate, peucedanol-2′-benzoate] | – | – | – | – |
| 51.95 ± 0.01% | 68.23 ± 0.39% | 1860 µg/mL (≈ 5.66 mM) | – | CC(C)=CC(=O)OC(C)(C)C1Cc2cc3ccc(=O)oc3cc2O1 (centres unmarked) [Prantschimgin, prantschimgin] | – | – | – | – |
| 81.58 ± 1.15% | 87.95 ± 1.07% | 890 µg/mL (≈ 3.64 mM) | – | COc1cc2oc(=O)ccc2cc1CC=C(C)C [Suberosin, suberosin] | – | – | – | – |
